Some test systems named below: CCRF-CEM leukemia; A498 renal; U251 CNS; HOP-92 NSCLC; OVCAR-5 ovarian; SNB-19 CNS; OVCAR-4 ovarian; 786-0 renal; RPMI-8226 leukemia; MDA-MB-231 breast.
What all share (test): NCI tumour cell line growth inhibition, 48 h

Each structure is given as a SMILES string. Where “and” joins values, the source holds several entries; their conditions need not be identical. Identical values can stand only once.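 Each compound was tested at five concentrations against cells in 96-well plates for 48 hours. GI50: concentration for 50% inhibition of growth. TGI: concentration producing complete growth inhibition.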 Bounds are passed on as bounds.

As for `O=C(CCN1CCCCC1CO)Nc1ccc2c(c1)C(=O)c1ccc(NC(=O)CCN3CCCCC3CO)cc1C2=O` (stereo not drawn), the TGI in the experiment on CCRF-CEM leukemia turned out to be 30.5 µM; in the experiment with A498 renal, 9.87 µM; in the experiment on U251 CNS, 20.6 µM; in the experiment on HOP-92 NSCLC, 37.2 µM; with OVCAR-5 ovarian, 67.5 µM; with SNB-19 CNS, 31.2 µM. For the same compound, the TGI in the experiment with OVCAR-4 ovarian turned out to be 27.1 µM; with 786-0 renal, 6.58 µM; in the experiment with RPMI-8226 leukemia, 48 µM.

As for `COCCCN1C(=O)C2c3[nH]c4ccccc4c3C3CCC(C(C)(C)C)CC3C2C1=O` (stereo not drawn), the TGI in the experiment with CCRF-CEM leukemia is 52.9 µM; in the experiment on MDA-MB-231 breast, 56.3 µM; in the experiment with U251 CNS, 34.5 µM; in the experiment on SNB-19 CNS, > 100 µM; with OVCAR-4 ovarian, > 100 µM; in the experiment with 786-0 renal it was 63.1 µM. For the same compound, in the experiment with RPMI-8226 leukemia, the TGI was 56.1 µM.

In the case of `CCOc1ccc(NC(=S)/N=C/C(C(=O)Nc2ccccc2C)=C(\C)O)cc1`, the TGI in the experiment with MDA-MB-231 breast, with U251 CNS, with OVCAR-5 ovarian, in the experiment with SNB-19 CNS, in the experiment with OVCAR-4 ovarian and in the experiment with 786-0 renal was > 100 µM in each case. For the same compound, the TGI in the experiment on RPMI-8226 leukemia was > 100 µM.

As to `COc1cc([C@@H]2c3cc4c(cc3[C@@H](Nc3ccc(Cl)cc3C(=O)c3ccccc3Cl)[C@H]3COC(=O)[C@H]23)OCO4)cc(OC)c1OC`, the TGI is > 100 µM in the experiment with MDA-MB-231 breast; 0.364 µM in the experiment on U251 CNS; > 100 µM in the experiment on OVCAR-5 ovarian; 76.1 µM with SNB-19 CNS; > 100 µM in the experiment on OVCAR-4 ovarian; > 100 µM with 786-0 renal.

Regarding `COc1ccc(-c2c(C(C)=O)c(C)n(C3OC(CO)C(O)C(O)C3O)c(=S)c2C#N)cc1` (stereo not drawn), the TGI with CCRF-CEM leukemia was > 100 µM; with MDA-MB-231 breast it was > 100 µM; with U251 CNS, > 100 µM; in the experiment with OVCAR-5 ovarian it was > 100 µM; in the experiment on SNB-19 CNS, 33.6 µM; in the experiment with OVCAR-4 ovarian, > 100 µM. In the experiment on RPMI-8226 leukemia, the TGI was > 100 µM.

With `CC(=O)Nc1ccc(C(=O)N2N=C(C)/C(=C/c3cccc(O)c3)C2=O)cc1`, the TGI in the experiment on CCRF-CEM leukemia, in the experiment on U251 CNS, in the experiment on OVCAR-5 ovarian, in the experiment with SNB-19 CNS, with OVCAR-4 ovarian and with 786-0 renal was > 100 µM each time.

Regarding `Cc1c(-c2coc(-c3ccc(Cl)cc3)n2)c(=O)n(-c2ccccc2)n1C`, the TGI with CCRF-CEM leukemia, in the experiment on A498 renal, in the experiment on U251 CNS, with HOP-92 NSCLC, in the experiment with OVCAR-5 ovarian and in the experiment on OVCAR-4 ovarian was > 100 µM throughout. Also, the TGI in the experiment on 786-0 renal and in the experiment with RPMI-8226 leukemia was > 100 µM each time.

Turning to `CCN(CC)c1ccc(C(=C2C=CC(=[N+](CC)CC)C=C2)c2ccccc2)cc1`, the TGI with CCRF-CEM leukemia amounted to 0.0401 µM; in the experiment on U251 CNS, 0.112 µM; in the experiment on HOP-92 NSCLC, 0.0971 µM; with OVCAR-5 ovarian it was 0.342 µM; with SNB-19 CNS, 0.179 µM; with OVCAR-4 ovarian, 0.488 µM. Besides, the TGI with 786-0 renal is 0.151 µM; with RPMI-8226 leukemia, 0.0683 µM.

In the case of `CSc1nc2c(ncn2C2OCC(O)C(O)C2O)c(=O)[nH]1` (stereo not drawn), the TGI in the experiment on CCRF-CEM leukemia, in the experiment on A498 renal, with U251 CNS, in the experiment on HOP-92 NSCLC, in the experiment on OVCAR-5 ovarian and in the experiment with SNB-19 CNS was > 100 µM throughout. Besides, the TGI in the experiment on OVCAR-4 ovarian and with RPMI-8226 leukemia was > 100 µM each time.

In the case of `CC(=O)c1c(O)c(C)c(O)c2c1OC1=CC(=O)C(C(C)=O)C(=O)C12C` (stereo not drawn), the GI50 was 4.26 µM and 20.7 µM in the experiment with CCRF-CEM leukemia; 232 nM and 507 nM in the experiment with A498 renal; 4.13 µM and 11.3 µM in the experiment with U251 CNS; 5.38 µM and 18.7 µM in the experiment on HOP-92 NSCLC; 17.1 µM and 38.1 µM with OVCAR-5 ovarian; 4.26 µM and 12.4 µM with SNB-19 CNS. Also, the GI50 is 5.28 µM and 9.79 µM in the experiment on OVCAR-4 ovarian; 3.88 µM and 9.02 µM in the experiment on RPMI-8226 leukemia. Further, the TGI is 26.2 µM and 72.6 µM with CCRF-CEM leukemia; 0.412 µM and 0.742 µM in the experiment with A498 renal; 18.4 µM and 47.6 µM in the experiment with U251 CNS; 9.69 µM and 57.1 µM in the experiment with HOP-92 NSCLC; 50.4 µM and 84.6 µM with OVCAR-5 ovarian; 18.2 µM and 44.5 µM in the experiment with SNB-19 CNS. Further, the TGI in the experiment on OVCAR-4 ovarian is 61.3 µM and 35.1 µM; in the experiment on RPMI-8226 leukemia, 24.2 µM and 49.7 µM.

With `C=C1C(=O)C[C@@]23CCC[C@@]12CC(O)C3` (stereo partly drawn), the TGI with CCRF-CEM leukemia is 56.2 µM; in the experiment with A498 renal, > 48.9 µM; with U251 CNS it was > 100 µM; with HOP-92 NSCLC, 42.1 µM; with OVCAR-5 ovarian it was > 54.2 µM; in the experiment on SNB-19 CNS it was > 100 µM. The TGI is 36.2 µM in the experiment on OVCAR-4 ovarian and 61.3 µM in the experiment with RPMI-8226 leukemia.

Consider `NC(CO)c1ccccc1` (stereo not drawn), for which the TGI with CCRF-CEM leukemia, in the experiment with U251 CNS, in the experiment on HOP-92 NSCLC, with OVCAR-5 ovarian, with SNB-19 CNS and with OVCAR-4 ovarian was > 100 µM in each case.

Take `COc1cc2cc3c4c(cc(OC)c(OC)c4c2cc1OC)CCN3C(=O)OCCBr`: the TGI with CCRF-CEM leukemia is 88.2 µM; with A498 renal, > 100 µM; with U251 CNS, > 100 µM; in the experiment with HOP-92 NSCLC, > 100 µM; with OVCAR-5 ovarian, > 100 µM; in the experiment on SNB-19 CNS it was > 100 µM. For the same compound, the TGI in the experiment on 786-0 renal was > 100 µM.

For the origin of these results see PubChem BioAssay (NCI).
